{"source": "PubChem BioAssay (NCI)", "assay_in_all_cases": "NCI-60 cell line screen, 48 h", "key": {"A498 renal": {"tested_on": "A498 renal"}, "ACHN renal": {"tested_on": "ACHN renal"}, "CAKI-1 renal": {"tested_on": "CAKI-1 renal"}, "COLO 205 colon": {"tested_on": "COLO 205 colon"}, "DU-145 prostate": {"tested_on": "DU-145 prostate"}, "HL-60(TB) leukemia": {"tested_on": "HL-60(TB) leukemia"}, "HS 578T breast": {"tested_on": "HS 578T breast"}, "KM12 colon": {"tested_on": "KM12 colon"}, "MCF7 breast": {"tested_on": "MCF7 breast"}, "MDA-MB-231 breast": {"tested_on": "MDA-MB-231 breast"}, "MDA-MB-435": {"tested_on": "MDA-MB-435"}, "NCI-H226 lung": {"tested_on": "NCI-H226 lung"}, "NCI/ADR-RES ovarian": {"tested_on": "NCI/ADR-RES ovarian"}, "OVCAR-4 ovarian": {"tested_on": "OVCAR-4 ovarian"}, "OVCAR-5 ovarian": {"tested_on": "OVCAR-5 ovarian"}, "SF-539 CNS": {"tested_on": "SF-539 CNS"}, "SK-MEL-2 melanoma": {"tested_on": "SK-MEL-2 melanoma"}, "SK-MEL-28 melanoma": {"tested_on": "SK-MEL-28 melanoma"}, "SK-OV-3 ovarian": {"tested_on": "SK-OV-3 ovarian"}, "SN12C renal": {"tested_on": "SN12C renal"}, "SNB-75 CNS": {"tested_on": "SNB-75 CNS"}, "T-47D breast": {"tested_on": "T-47D breast"}, "TK-10 renal": {"tested_on": "TK-10 renal"}, "UACC-257 melanoma": {"tested_on": "UACC-257 melanoma"}, "UACC-62 melanoma": {"tested_on": "UACC-62 melanoma"}}, "note": "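Each compound was tested at five concentrations against cells in 96-well plates for 48 hours. GI50 is the concentration that inhibits growth by half. At the TGI there is no net growth.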"}
{"smiles": "Cc1ccc(NC(=O)c2ccc(CN3CCN(C)CC3)c(I)c2)cc1Oc1ccc(-c2[nH]nc3ncnc(N)c23)cc1", "values": [{"measurement": "GI50", "setting": "A498 renal", "result": 18.8, "unit": "µM"}, {"measurement": "TGI", "setting": "A498 renal", "result": 38.3, "unit": "µM"}, {"measurement": "GI50", "setting": "ACHN renal", "result": 1.8, "unit": "µM"}, {"measurement": "TGI", "setting": "ACHN renal", "result": 3.33, "unit": "µM"}, {"measurement": "GI50", "setting": "CAKI-1 renal", "result": 12, "unit": "µM"}, {"measurement": "TGI", "setting": "CAKI-1 renal", "result": 28.1, "unit": "µM"}, {"measurement": "GI50", "setting": "COLO 205 colon", "result": 1.73, "unit": "µM"}, {"measurement": "TGI", "setting": "COLO 205 colon", "result": 5.08, "unit": "µM"}, {"measurement": "GI50", "setting": "DU-145 prostate", "result": 1.88, "unit": "µM"}, {"measurement": "TGI", "setting": "DU-145 prostate", "result": 3.45, "unit": "µM"}, {"measurement": "GI50", "setting": "HL-60(TB) leukemia", "result": 4.42, "unit": "µM"}, {"measurement": "TGI", "setting": "HL-60(TB) leukemia", "result": "> 100", "unit": "µM"}, {"measurement": "GI50", "setting": "HS 578T breast", "result": 1.77, "unit": "µM"}, {"measurement": "TGI", "setting": "HS 578T breast", "result": 5.09, "unit": "µM"}, {"measurement": "GI50", "setting": "KM12 colon", "result": 1.79, "unit": "µM"}, {"measurement": "TGI", "setting": "KM12 colon", "result": 3.59, "unit": "µM"}, {"measurement": "GI50", "setting": "MCF7 breast", "result": 1.35, "unit": "µM"}, {"measurement": "TGI", "setting": "MCF7 breast", "result": 2.94, "unit": "µM"}, {"measurement": "GI50", "setting": "MDA-MB-231 breast", "result": 1.85, "unit": "µM"}, {"measurement": "TGI", "setting": "MDA-MB-231 breast", "result": 3.47, "unit": "µM"}, {"measurement": "GI50", "setting": "MDA-MB-435", "result": 1.58, "unit": "µM"}, {"measurement": "TGI", "setting": "MDA-MB-435", "result": 3.01, "unit": "µM"}, {"measurement": "GI50", "setting": "NCI-H226 lung", "result": 23.2, "unit": "µM"}, {"measurement": "TGI", "setting": "NCI-H226 lung", "result": 84.9, "unit": "µM"}, {"measurement": "GI50", "setting": "NCI/ADR-RES ovarian", "result": 3.93, "unit": "µM"}, {"measurement": "TGI", "setting": "NCI/ADR-RES ovarian", "result": 40.7, "unit": "µM"}, {"measurement": "GI50", "setting": "OVCAR-4 ovarian", "result": 18, "unit": "µM"}, {"measurement": "TGI", "setting": "OVCAR-4 ovarian", "result": 40.7, "unit": "µM"}, {"measurement": "GI50", "setting": "OVCAR-5 ovarian", "result": 1.94, "unit": "µM"}, {"measurement": "TGI", "setting": "OVCAR-5 ovarian", "result": 3.52, "unit": "µM"}, {"measurement": "GI50", "setting": "SF-539 CNS", "result": 1.26, "unit": "µM"}, {"measurement": "TGI", "setting": "SF-539 CNS", "result": 2.68, "unit": "µM"}, {"measurement": "GI50", "setting": "SK-MEL-2 melanoma", "result": 24.7, "unit": "µM"}, {"measurement": "TGI", "setting": "SK-MEL-2 melanoma", "result": 80.1, "unit": "µM"}, {"measurement": "GI50", "setting": "SK-MEL-28 melanoma", "result": 1.63, "unit": "µM"}, {"measurement": "TGI", "setting": "SK-MEL-28 melanoma", "result": 3.12, "unit": "µM"}, {"measurement": "GI50", "setting": "SK-OV-3 ovarian", "result": 26.2, "unit": "µM"}, {"measurement": "TGI", "setting": "SK-OV-3 ovarian", "result": 63.9, "unit": "µM"}, {"measurement": "GI50", "setting": "SN12C renal", "result": 12.1, "unit": "µM"}, {"measurement": "TGI", "setting": "SN12C renal", "result": 33.8, "unit": "µM"}, {"measurement": "GI50", "setting": "SNB-75 CNS", "result": 0.458, "unit": "µM"}, {"measurement": "TGI", "setting": "SNB-75 CNS", "result": 20.8, "unit": "µM"}, {"measurement": "GI50", "setting": "T-47D breast", "result": 2.72, "unit": "µM"}, {"measurement": "TGI", "setting": "T-47D breast", "result": "> 100", "unit": "µM"}, {"measurement": "GI50", "setting": "TK-10 renal", "result": 5.33, "unit": "µM"}, {"measurement": "TGI", "setting": "TK-10 renal", "result": 28, "unit": "µM"}, {"measurement": "GI50", "setting": "UACC-257 melanoma", "result": 2.03, "unit": "µM"}, {"measurement": "TGI", "setting": "UACC-257 melanoma", "result": 4.59, "unit": "µM"}, {"measurement": "GI50", "setting": "UACC-62 melanoma", "result": 1.73, "unit": "µM"}, {"measurement": "TGI", "setting": "UACC-62 melanoma", "result": 3.35, "unit": "µM"}]}
